Test results taken from patent publication US5681966A, “Compounds and methods for the treatment of cardiovascular, inflammatory and immune disorders” (Cytomed, Inc., priority 1995, dated 1997).
One block for each molecule: values may come before it.

What was measured:
5-lipoxygenase [1] = target: T1, 5-lipoxygenase (Rattus norvegicus, UniProt P12527); experiment: Inhibition of soluble 5-lipoxygenase in RBL-1 cell extract (cytosol 5-lipoxygenase of rat basophile leukemia cells; RBL); assay type: biochemical; settings: for IC50: RBL-1 cell extract; for activity in 5-lipoxygenase assay: qualitative
T1 construct: The supernatant solution (cytosol fraction) containing 5-lipoxygenase was stored; endogenous in cells; host or cells: RBL-1 rat basophilic leukemia cells, 105,000 x g supernatant (cytosol)
T1 sequence (P12527 1-673): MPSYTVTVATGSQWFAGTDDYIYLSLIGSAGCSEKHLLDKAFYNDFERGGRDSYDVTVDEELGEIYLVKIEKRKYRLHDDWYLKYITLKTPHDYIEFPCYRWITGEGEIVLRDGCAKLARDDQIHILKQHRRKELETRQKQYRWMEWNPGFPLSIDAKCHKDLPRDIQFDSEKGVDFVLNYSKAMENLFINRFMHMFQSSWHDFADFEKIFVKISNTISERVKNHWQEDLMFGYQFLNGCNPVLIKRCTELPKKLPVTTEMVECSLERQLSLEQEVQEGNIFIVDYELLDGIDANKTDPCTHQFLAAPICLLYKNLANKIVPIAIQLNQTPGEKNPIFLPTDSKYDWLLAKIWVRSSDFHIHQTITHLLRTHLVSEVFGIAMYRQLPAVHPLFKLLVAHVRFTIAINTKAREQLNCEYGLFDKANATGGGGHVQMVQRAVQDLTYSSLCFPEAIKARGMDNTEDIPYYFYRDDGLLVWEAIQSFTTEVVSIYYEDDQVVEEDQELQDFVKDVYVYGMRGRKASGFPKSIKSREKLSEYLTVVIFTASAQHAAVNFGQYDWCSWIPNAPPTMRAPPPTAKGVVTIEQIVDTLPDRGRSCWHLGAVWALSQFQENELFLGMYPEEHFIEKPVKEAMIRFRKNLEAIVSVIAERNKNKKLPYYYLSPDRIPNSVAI
Procedure: Effect of Compounds on Cytosol 5-Lipoxygenase of Rat Basophile Leukemia Cells
Washed rat RBL cells (4×108) were suspended in 20 ml of […] potassium phosphate buffer at pH 7.4 containing 10% ethylene glycol/1 mM EDTA (Buffer A). The cell suspension was sonicated at 20 KHz for 30 seconds, and the sonicate was centrifuged at 10,000 × g for 10 minutes, followed by further centrifugation at 105,000 × g for 1 hr. The supernatant solution (cytosol fraction) containing 5-lipoxygenase was stored at -70° C. Protein concentration was determined according to the procedure of Bradford (Bradford Dye Reagent) with bovine serum albumin as a standard.
For routine assay of 5-lipoxygenase the mixture contained 50 mM potassium phosphate buffer at pH 7.4, 2 mM CaCl2, 2 mM ATP, […] arachidonic acid (0.1 Ci) and enzyme ([…] of protein) in a final volume of […]. The reaction was carried out at 24° C. for 3 minutes. The mixture was extracted with 0.2 ml of an ice-cold mixture of ethyl ether:methanol: 0.2M citric acid (30:4:1). The extract was subjected to thin-layer chromatography at -10° C. in a solvent system of petroleum ether:ethyl ether:acetic acid (15:85:0.1). The silica gel zones corresponding to authentic arachidonic acid and its metabolites were scraped into scintillation vials for counting. The enzyme activity was expressed in terms of the amount of arachidonic acid oxygenated for 3 minutes.
Table 3 provides data for the inhibition of soluble 5-lipoxygenase in RBL-1 cell extract by racemic compound 202, as well as its enantiomers, compounds […], 234, and 236.

[2] = system: 5-lipoxygenase (ex vivo LTB4); experiment: Ex vivo whole blood 5-lipoxygenase evaluation (ex vivo LTB4); assay type: in vivo; settings: rat, 10 mg/kg po, 180'
Procedure: Ex-vivo Mouse and Rat Whole Blood 5-lipoxygenase Evaluation
CD-1 female mice, weighing 18-25 grams, and CD female rates, weighing 150-230 grams, were obtained from Charles River Labs. Compounds were dissolved in 0.5% DMSO in 0.9% NaCl for administration in mice (0.5 mg/ml) and in an alcohol Vehicle (2% benzyl alcohol, 1% ethanol, 40% PEG 300 10% propylene glycol, 47% of 5% dextrose plus 3.5% pluronic F-68 in DiH2 O) for use in rates (5 mg/ml). […] Heparinized whole blood (0.3 ml) was added into 1.5 ml Eppendorf centrifuge tub containing […] of 2 mM calcium ionophore A23187 (the final concentration of A23187 was […]). The sample was incubated for 30 minutes in a water bath of 37° C., and then centrifuged for 2 minutes. The plasma was diluted (×120) and assayed for LTB4 using EIA.
Table 3 provides data for the ex-vivo mouse and rat whole blood 5-lipoxygenase values on administration of racemic compound 202, as well as its enantiomers, compounds 216, 217, 234, and 236.

platelets = settings: active concentration; cited from earlier work
[3] = cited from earlier work
PAF receptor = settings: cited from earlier work; for PAF receptor antagonism / inhibition of PAF binding: qualitative
5-lipoxygenase [4] = settings: qualitative; cited from earlier work
[5] = system: PAF-induced rat cutaneous vascular permeability; settings: 30 mg/kg body weight; orally active; cited from earlier work

Molecule: C[C@H](C#C[C@@H]1CC[C@@H](c2ccc(F)cc2)O1)N(O)C(N)=O
IC50 (5-lipoxygenase [1]): 3800 nM

Molecule: C[C@@H](C#C[C@@H]1CC[C@@H](c2ccc(F)cc2)O1)N(O)C(N)=O
IC50 (5-lipoxygenase [1]): 3510 nM

Molecule: C[C@H](C#C[C@H]1CC[C@H](c2ccc(F)cc2)O1)N(O)C(N)=O
IC50 (5-lipoxygenase [1]): 3100 nM

Molecule: 1-O-alkyl-2-acetyl-sn-glycerol-3-phosphorylcholine [PAF]
potency (active at) (platelets): 10^-12 to 10^-9 M
plasma half life [3]: 2 to 4 min

Molecule: CCCCCCCCCCCCCCCCCCNC(=O)OCC(COP(=O)([O-])OCC[n+]1ccsc1)OC (racemic) [CV-3988, rac-3-(N-n-octadecyl-carbamoyloxy-ω-methoxypropyl-2-thiazolioethyl phosphate]
PAF receptor antagonism / inhibition of PAF binding (PAF receptor): PAF receptor antagonist properties

Molecule: COc1cc([C@H]2CC[C@H](c3cc(OC)c(OC)c(OC)c3)O2)cc(OC)c1OC (relative stereo) [L-652,731, trans-2,5-bis-(3,4,5-trimethoxyphenyl) tetrahydrofuran]
effect on 5-lipoxygenase (5-lipoxygenase [4]): no effect on the enzyme 5-lipoxygenase
inhibition of PAF-induced cutaneous vascular permeability [5]: inhibit PAF-induced rat cutaneous vascular permeability
PAF receptor antagonism / inhibition of PAF binding (PAF receptor): inhibits the binding of tritiated PAF to PAF receptor sites
relative potency, trans versus cis (PAF receptor; trans-L-652,731 vs cis-L-652,731): approximately 1000 times

Molecule: COc1cc([C@H]2CC[C@H](c3cc(OC)c(OC)c(OC)c3)S2)cc(OC)c1OC (relative stereo) [L-653,150, trans-2,5-bis-(3,4,5-trimethoxyphenyl)tetrahydrothiophene]
effect on 5-lipoxygenase (5-lipoxygenase [4]): moderate inhibitor of 5-lipoxygenase
PAF receptor antagonism / inhibition of PAF binding (PAF receptor): potent PAF antagonist

Molecule: CCCOc1c(OC)cc([C@@H]2CC[C@@H](c3cc(OC)c(OC)c(OC)c3)O2)cc1S(C)(=O)=O (relative stereo) [L-659,989, trans-2-(3-methoxy-4-propoxyphenyl-5-methylsulfonyl)-5-(3,4,5-trimethoxyphenyl)tetrahydrofuran]
PAF receptor antagonism / inhibition of PAF binding (PAF receptor): orally active, potent, competitive PAF receptor antagonist
equilibrium inhibition constant relative to trans-L-652,731 (PAF receptor; vs trans-L-652,731): 10 times

Molecule: C=CCC1=C[C@@]2(OC)C(=CC1=O)O[C@H](c1ccc(OC)c(OC)c1)[C@H]2C [kadsurenone]
PAF receptor antagonism / inhibition of PAF binding (PAF receptor): potent, specific and competitive inhibitor of PAF activity at the receptor level

Further lines, with some results ahead:

IC50 (5-lipoxygenase [1]): 2000 nM
Molecule: C[C@@H](C#C[C@H]1CC[C@H](c2ccc(F)cc2)O1)N(O)C(N)=O

IC50 (5-lipoxygenase [1]): 618 nM
Molecule: NC(=O)N(O)CCCCC1CCC(c2ccc(F)cc2)O1 (stereo not shown)
ex vivo LTB4 % (inhibition), last sub-column [2]: 83%

IC50 (5-lipoxygenase [1]): 1100 nM
Molecule: NC(=O)N(O)CCCC[C@@H]1CC[C@@H](c2ccc(F)cc2)O1

IC50 (5-lipoxygenase [1]): 2800 nM
inhibition at 1.6 µM (5-lipoxygenase [1]; dose 1.6 uM, read-out: RBL % inh.): 20%
Molecule: CC(C#C[C@@H]1CC[C@@H](c2ccc(F)cc2)O1)N(O)C(N)=O (relative stereo)

activity in 5-lipoxygenase assay (5-lipoxygenase [1]): showed activity in this assay
Molecule: CN(O)C(=O)NCCCO[C@@H]1CC[C@@H](c2ccc(F)cc2)O1 (relative stereo) [Compound 9, 2-(4-fluorophenyl)-5-[3-(N'-methyl-N'-hydroxyureidyl)propoxy] tetrahydrofuran]

activity in 5-lipoxygenase assay (5-lipoxygenase [1]): showed activity in this assay
Molecule: CN(O)C(=O)NCCCO[C@@H]1CC[C@H](c2ccc(F)cc2)O1 (relative stereo) [Compound 11, 2-(4-fluorophenyl)-5-[3-(N'-methyl-N'-hydroxyureidyl)propoxy] tetrahydrofuran]

activity in 5-lipoxygenase assay (5-lipoxygenase [1]): showed activity in this assay
Molecule: NC(=O)N(O)CCCO[C@@H]1CC[C@@H](c2ccc(F)cc2)O1 (relative stereo) [Compound 14, 2-(4-fluorophenyl)-5-(3-hydroxyureidylpropoxy) tetrahydrofuran]

activity in 5-lipoxygenase assay (5-lipoxygenase [1]): showed activity in this assay
Molecule: NC(=O)N(O)CCCO[C@@H]1CC[C@H](c2ccc(F)cc2)O1 (relative stereo) [Compound 15, 2-(4-fluorophenyl)-5-(3-hydroxyureidylpropoxy) tetrahydrofuran]
